The assay deals with IRAK4 (Homo sapiens (Human), UniProt Q9NWZ3). Briefly: IRAK4 Inhibition Assay. Format: biochemical. How it is done: IRAK4 Inhibition Assay The assays were performed in U-bottom 384-well plates. […] The reaction was initiated by the combination of IRAK4 with substrates and test compounds. The reaction mixture was incubated at room temperature for 60 min. and terminated by adding 45 μL of 35 mM EDTA to each sample.

Setting [1] is: ATP 500 μM, IRAK4 0.6 nM, 60 min at room temperature, read-out: IRAK4 IC50.

Read-outs that look alike come from different tables or passages of the source.

Chain of IRAK4 (Q9NWZ3 whole entry, species assumed): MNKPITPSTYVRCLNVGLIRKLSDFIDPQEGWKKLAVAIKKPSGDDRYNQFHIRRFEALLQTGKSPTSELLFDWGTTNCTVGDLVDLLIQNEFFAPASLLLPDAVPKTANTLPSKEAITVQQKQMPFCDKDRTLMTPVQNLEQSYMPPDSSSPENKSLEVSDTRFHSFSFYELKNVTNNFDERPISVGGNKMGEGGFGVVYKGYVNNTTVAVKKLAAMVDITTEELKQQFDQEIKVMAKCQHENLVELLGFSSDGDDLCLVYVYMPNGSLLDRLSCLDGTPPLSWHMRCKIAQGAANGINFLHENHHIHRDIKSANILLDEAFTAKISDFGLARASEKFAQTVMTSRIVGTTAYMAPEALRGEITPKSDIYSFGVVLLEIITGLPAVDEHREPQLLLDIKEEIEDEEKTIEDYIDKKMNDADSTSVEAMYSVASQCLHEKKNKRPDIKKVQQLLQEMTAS

For `CNC(=O)[C@H]1CC[C@H](NC(=O)c2cnc(Nc3ncc(C#N)cc3Cl)cc2NC(C)C)CC1` [Example 16, 6-((3-chloro-5-cyanopyridin-2-yl)amino)-4-(isopropylamino)-N-((1r,4r)-4-(methylcarbamoyl)cyclohexyl)nicotinamide], the IC50 (as a rule, the concentration needed to halve the response being measured) under setting [1] worked out at 6.3 nM.

For the molecule `CC(C)(O)[C@H](F)CNC(=O)c1cnc(Nc2ncc(C#N)cn2)cc1NC1CCC(F)C1` (stereo partly shown) [Example 86], the IC50 under setting [1] was 4.8 nM.

Turning to `CC(C)Nc1cc(Nc2ncc(C#N)c(NC(C)C)n2)ncc1C(=O)NC[C@@H](F)C(C)(C)O` [Example 40], the 50% inhibitory concentration (IC50) under setting [1] came out at 6.4 nM.

As for `CC(C)Nc1cc(Nc2ccnc(NC3CC3)n2)ncc1C(=O)NC[C@@H](F)C(C)(C)O` [Example 24, 6-((2-(cyclopropylamino)-4-pyrimidinyl)amino)-N-((2R)-2-fluoro-3-hydroxy-3-methylbutyl)-4-(isopropylamino)nicotinamide], the IC50 under setting [1] is 11 nM.

As for `CC(Nc1cc(Nc2ncc(C#N)cn2)ncc1C(=O)NC[C@@H](F)C(C)(C)O)C1CC1` (stereo partly shown) [Example 163], the 50% inhibitory concentration (IC50) under setting [1] was determined as 10.2 nM.

As for `CC(C)(O)[C@H](F)CNC(=O)c1cnc(Nc2ncncc2F)cc1NC1CC1` [Example 94], the IC50 under setting [1] turned out to be 12.1 nM.

Turning to `CC(C)(O)[C@H](F)CNC(=O)c1cnc(Nc2ncc(C#N)cc2Cl)cc1N[C@H]1CC[C@@](C)(O)CC1` [Example 152], the IC50 under setting [1] came out at 5.3 nM.

Regarding `CC(C)(O)[C@H](F)CNC(=O)c1cnc(Nc2ncc(C#N)cc2F)cc1NC1CCCOC1` (stereo partly shown) [Example 97], the half-maximal inhibitory concentration (IC50) under setting [1] worked out at 5.3 nM.

As for `CC(C)(O)[C@H](F)CNC(=O)c1cnc(Nc2ncc(C#N)cc2Cl)cc1NCC(F)(F)F` [Example 65], the 50% inhibitory concentration (IC50) under setting [1] is 2.9 nM.

With `C[C@@H](CO)Nc1cc(Nc2ncc(C#N)cc2F)ncc1C(=O)NC[C@@H](F)C(C)(C)O` [Example 91], the concentration for half-maximal inhibition (IC50) under setting [1] stood at 4.3 nM.

As to `CCNc1cc(Nc2ncc(C#N)cn2)ncc1C(=O)NC[C@@H](F)C(C)(C)O` [Example 58], the IC50 under setting [1] was determined as 10.4 nM.

Turning to `CC(C)(O)[C@H](F)CNC(=O)c1cnc(Nc2ncc(F)cc2F)cc1NC1CCOCC1F` (stereo partly shown) [Example 108], under setting [1], the half-maximal inhibitory concentration (IC50) came to 8.7 nM.

For the molecule `CC(C)Nc1cc(Nc2ncc(F)cc2F)ncc1C(=O)NC[C@@H](F)C(C)(C)O` [Example 80], under setting [1], the half-maximal inhibitory concentration (IC50) came to 7 nM.

For the molecule `CC(C)(O)[C@H](F)CNC(=O)c1cnc(Nc2ncc(Cl)cc2F)cc1NC1CC1` [Example 124], the half-maximal inhibitory concentration (IC50) under setting [1] was determined as 5.7 nM.

For `CC(C)(O)[C@H](F)CNC(=O)c1cnc(Nc2ncc(C#N)cc2F)cc1NCC(F)(F)C(C)(C)O` [Example 126], the IC50 under setting [1] was found to be 2.9 nM.

For `CNC(=O)[C@H]1CC[C@H](NC(=O)c2cnc(Nc3ncc(C#N)cc3F)cc2NC(C)C)CC1` [Example 18, 6-((5-cyano-3-fluoropyridin-2-yl)amino)-4-(isopropylamino)-N-((1r,4r)-4-(methylcarbamoyl)cyclohexyl)nicotinamide], under setting [1], the IC50 was determined as 3.4 nM.

As for `CS(=O)(=O)[C@H]1CC[C@H](NC(=O)c2cnc(Nc3ncc(C#N)cc3Cl)cc2NC2CC2)CC1` [Example 151], the concentration for half-maximal inhibition (IC50) under setting [1] amounted to 3.3 nM.

Take `CC(C)(O)[C@H](F)CNC(=O)c1cnc(Nc2nc(-c3cccnc3)cs2)cc1NC1CC1` [Example 23, 4-(cyclopropylamino)-N-((2R)-2-fluoro-3-hydroxy-3-methylbutyl)-6-((4-(3-pyridinyl)-1,3-thiazol-2-yl)amino)nicotinamide]: the half-maximal inhibitory concentration (IC50) came out at 23.3 nM.

On to `CC(=O)N[C@H]1CC[C@H](NC(=O)c2cnc(Nc3ncc(C#N)cc3F)cc2NC(C)C)CC1` [Example 19, N-(trans-4-acetamidocyclohexyl)-6-((5-cyano-3-fluoro-2-pyridinyl)amino)-4-(isopropylamino)nicotinamide], for which, under setting [1], the IC50 was 4.8 nM.

Take `CC(=O)N[C@H]1CC[C@H](NC(=O)c2cnc(Nc3ccc(C#N)cn3)cc2NC(C)C)CC1` [Example 9, N-(trans-4-acetamidocyclohexyl)-6-((5-cyano-2-pyridinyl)amino)-4-(isopropylamino)nicotinamide]: under setting [1], the IC50 amounted to 7.4 nM.

Turning to `CC(C)(O)[C@H](F)CNC(=O)c1cnc(Nc2ncc(C#N)cn2)cc1NC1CCC(F)C1` (stereo partly shown) [Example 56], the IC50 under setting [1] came out at 5 nM.

With `C[C@@H](CO)Nc1cc(Nc2ncc(C#N)cn2)ncc1C(=O)NC[C@@H](F)C(C)(C)O` [Example 101], under setting [1], the concentration for half-maximal inhibition (IC50) was 5.6 nM.

In the case of `CC(C)Nc1cc(Nc2ccc(=O)[nH]n2)ncc1C(=O)NC[C@@H](F)C(C)(C)O` [Example 45], under setting [1], the IC50 turned out to be 7.5 nM.

As to `CC(=O)N[C@H]1CC[C@H](NC(=O)c2cnc(Nc3ncc(C#N)cc3Cl)cc2NC2CCOCC2)CC1` [Example 77], the IC50 under setting [1] is 7.8 nM.

For `C[C@@H](CF)Nc1cc(Nc2ncc(C#N)cc2Cl)ncc1C(=O)NC[C@@H](F)C(C)(C)O` [Example 39, 6-((3-chloro-5-cyanopyridin-2-yl)amino)-N—((R)-2-fluoro-3-hydroxy-3-methylbutyl)-4-(((S)-1-fluoropropan-2-yl)amino)nicotinamide], the half-inhibitory concentration (IC50) under setting [1] amounted to 3.8 nM.

With `CCC(C)Nc1cc(Nc2ncc(C#N)cn2)ncc1C(=O)NC[C@@H](F)C(C)(C)O` (stereo partly shown) [Example 99], the IC50 under setting [1] came out at 4.2 nM.

Consider `CC(C)CCNc1cc(Nc2ncc(C#N)cc2Cl)ncc1C(=O)NC[C@@H](F)C(C)(C)O` [Example 140], for which the IC50 under setting [1] stood at 7.3 nM.

With `C[C@H](CO)Nc1cc(Nc2ncc(F)cc2F)ncc1C(=O)NC[C@@H](F)C(C)(C)O` [Example 100], the half-maximal inhibitory concentration (IC50) under setting [1] worked out at 17.4 nM.

For `CC(C)(O)[C@H](F)CNC(=O)c1cnc(Nc2ncc(C#N)cc2Cl)cc1Nc1cccc(C#N)c1` [Example 162], the concentration for half-maximal inhibition (IC50) under setting [1] was 2.6 nM.

Turning to `CC(C)Nc1cc(Nc2ncc(C#N)cc2F)ncc1C(=O)NCCCOC(C)(C)C` [Example 127], the IC50 under setting [1] was 15.3 nM.

Consider `CC(C)(O)[C@H](F)CNC(=O)c1cnc(Nc2ncc(C#N)cc2F)cc1NC1CCCOC1` (stereo partly shown) [Example 98], for which, under setting [1], the IC50 came out at 7.5 nM.

Consider `CC(C)(O)[C@H](F)CNC(=O)c1cnc(Nc2ccc(C#N)cn2)cc1NCC(F)(F)F` [Example 3, 6-((5-cyano-2-pyridinyl)amino)-N-((2R)-2-fluoro-3-hydroxy-3-methylbutyl)-4-((2,2,2-trifluoroethyl)amino)nicotinamide], for which the IC50 under setting [1] turned out to be 14.8 nM.

For the molecule `CC(C)Nc1cc(Nc2ncc(C#N)cc2F)ncc1C(=O)NCCc1ccc(S(N)(=O)=O)cc1` [Example 121], the IC50 under setting [1] is 6.6 nM.

As for `CC(C)(O)[C@H](F)CNC(=O)c1cnc(Nc2ncc(C#N)cn2)cc1N[C@H]1CCC[C@H]1F` [Example 107], the half-inhibitory concentration (IC50) under setting [1] amounted to 9.1 nM.

Take `CCCNc1cc(Nc2ncc(C#N)cc2Cl)ncc1C(=O)NC[C@@H](F)C(C)(C)O` [Example 138]: the IC50 under setting [1] turned out to be 3.5 nM.

As to `CC(C)(O)[C@H](F)CNC(=O)c1cnc(Nc2ncc(C#N)cc2F)cc1Nc1cccc(NS(C)(=O)=O)c1` [Example 134], the IC50 under setting [1] was determined as 5.2 nM.

For the molecule `CC(C)(O)[C@H](F)CNC(=O)c1cnc(Nc2ncc(C#N)cc2F)cc1Nc1cccc(O)c1` [Example 125], the IC50 under setting [1] was determined as 3.6 nM.

Consider `CC(C)Nc1cc(Nc2ncc(C#N)cc2F)ncc1C(=O)NC[C@@H](F)C(C)(C)O` [Example 17, 6-((5-cyano-3-fluoro-2-pyridinyl)amino)-N-((2R)-2-fluoro-3-hydroxy-3-methylbutyl)-4-(isopropylamino)nicotinamide], for which, under setting [1], the IC50 was determined as 9.6 nM.

As to `CCNc1cc(Nc2ncc(C#N)cc2F)ncc1C(=O)NC[C@@H](F)C(C)(C)O` [Example 66], the IC50 under setting [1] was found to be 3.8 nM.

Turning to `CC(C)(O)[C@H](F)CNC(=O)c1cnc(Nc2ncc(C#N)cc2Cl)cc1NC1CCCC1O` (stereo partly shown) [Example 76], under setting [1], the IC50 amounted to 6.4 nM.

Values taken from patent publication US9657009B2, “Heteroaryl substituted pyridyl compounds useful as kinase modulators” (BRISTOL-MYERS SQUIBB COMPANY, priority 2012, dated 2017).
